Reference: patent US20210196724A1, “BIARYL COMPOSITIONS AND METHODS FOR MODULATING A KINASE CASCADE” (Athenex, Inc., priority 2016, published 2021)
pIC50: −log10 of the molar value.

Assays:
Format in all cases: cell-based
TJ905 cells = assay: CellTiter-Glo cell viability, TJ905; conditions: 72 h
Experimental: (§1) The cell viability of 50 cancer cell lines was studied after treatment with Compound 121. Inhibition concentration values at 50% (IC50) were determined using CellTiter-Glo luminescent cell viability assay after incubation with different compound concentrations. GI50 values were determined according to the examples described above. Each cell line was treated with Compound 121, a standard chemotherapy drug as a reference control, and culture medium as a vehicle control.
(§2) All cells were cultured in media supplemented with 10-15% FBS at 37° C. in the presence of 5% CO2 and at 95% humidity. The culture medium was purchased from GIBCO or Sigma, USA. Cisplatin was chosen as the reference control and purchased from Hospira Australia Pty Ltd. The cell lines studied are presented in Table 5.
(§3) Cells were harvested during a logarithmic growth period and cell number count was determined using Count-star. Cell concentrations were adjusted to 4.44×10^4 cells/mL with respective culture medium. 90 μL of cell suspensions were added to two 96-well plates (plates A and B) with a final cell density of 4×10^3 cells/well.
(§4) 10 μL of culture medium was added to each well of plate A for TO reading. The plate was allowed to equilibrate at room temperature for approximately 30 min. 50 μL of CellTiter-Glo was added to each well and the contents were mixed for 5 min on an orbital shaker to induce cell lysis. The plate was allowed to incubate at room temperature for 20 min to stabilize luminescent signal.
(§5) 10 μM Compound 121 in media was serially diluted 3.16-fold to achieve 9 dose levels. Similarly, 100 μM reference control in media was serially diluted 3.16-fold to prepare reference control solutions. 10 μL drug solution and 10 μL of reference control was dispensed into each well in plate B.
(§6) Test plate B was incubated for 72 h in a humidified incubator at 37° C. in the presence of 5% CO2 and then subjected to CTG assay. The plate was allowed to equilibrate at room temperature for about 30 min. 50 μL of CellTiter-Glo was added to each well and the contents were mixed for 5 min on an orbital shaker to induce cell lysis. The plate was allowed to incubate at room temperature for 20 min to stabilize luminescent signal.
(§7) IC50 and GI50 values for each of the 50 cell lines are presented in Table 6 and were calculated based on the dose-response curves depicted in FIGS. 1-50. The dose-response curves were fitted using nonlinear regression model with a sigmoidal dose response. The formula for calculating survival rate was calculated by the formula:
(§8) Survival rate (%)=(LumTest article−LumMedium control)/(LumNone treated−LumMedium control)×100.

HT-1080 cells = assay: CellTiter-Glo cell viability, HT-1080; conditions: Homo sapiens, 72 h
Experimental: as §1, §2, §3, §4, §5, §6, §7, §8

SK-N-FI cells = assay: CellTiter-Glo cell viability, SK-N-FI; conditions: Homo sapiens, 72 h
Experimental: as §1, §2, §3, §4, §5, §6, §7, §8

HuCCT1 cells = assay: CellTiter-Glo cell viability, HuCCT1; conditions: Homo sapiens, HuCCT-1, 72 h
Experimental: as §1, §2, §3, §4, §5, §6, §7, §8

OVCAR-3 cells = assay: CellTiter-Glo cell viability, OVCAR-3; conditions: Homo sapiens, 72 h
Experimental: as §1, §2, §3, §4, §5, §6, §7, §8

NCI-H226 cells = assay: CellTiter-Glo cell viability, NCI-H226; conditions: Homo sapiens, 72 h
Experimental: as §1, §2, §3, §4, §5, §6, §7, §8

HCT-116 cells = assay: CellTiter-Glo cell viability, HCT-116; conditions: Homo sapiens, 72 h
Experimental: as §1, §2, §3, §4, §5, §6, §7, §8

JHH-5 cells = assay: CellTiter-Glo cell viability, JHH-5; conditions: 72 h
Experimental: as §1, §2, §3, §4, §5, §6, §7, §8

A-172 cells = assay: CellTiter-Glo cell viability, A-172; conditions: Homo sapiens, 72 h
Experimental: as §1, §2, §3, §4, §5, §6, §7, §8

SK-OV-3 cells = assay: CellTiter-Glo cell viability, SK-OV-3; conditions: Homo sapiens, 72 h
Experimental: as §1, §2, §3, §4, §5, §6, §7, §8

HUH-7 cells = assay: CellTiter-Glo cell viability, HUH-7; conditions: Homo sapiens, 72 h
Experimental: as §1, §2, §3, §4, §5, §6, §7, §8

HT-29 cells = assay: CellTiter-Glo cell viability, HT-29; conditions: Homo sapiens, 72 h
Experimental: as §1, §2, §3, §4, §5, §6, §7, §8

NCI-H1975 cells = assay: CellTiter-Glo cell viability, NCI-H1975; conditions: Homo sapiens, 72 h
Experimental: as §1, §2, §3, §4, §5, §6, §7, §8

FaDu cells = assay: CellTiter-Glo cell viability, FaDu; conditions: Homo sapiens, 72 h
Experimental: as §1, §2, §3, §4, §5, §6, §7, §8

786-O cells = assay: CellTiter-Glo cell viability, 786-O; conditions: Homo sapiens, 786-0, 72 h
Experimental: as §1, §2, §3, §4, §5, §6, §7, §8

BT474 cells = assay: CellTiter-Glo cell viability, BT474; conditions: Homo sapiens, BT-474, 72 h
Experimental: as §1, §2, §3, §4, §5, §6, §7, §8

NCI-H209 cells = assay: CellTiter-Glo cell viability, NCI-H209; conditions: Homo sapiens, 72 h
Experimental: as §1, §2, §3, §4, §5, §6, §7, §8

AN3 CA cells = assay: CellTiter-Glo cell viability, AN3 CA; conditions: Homo sapiens, 72 h
Experimental: as §1, §2, §3, §4, §5, §6, §7, §8

22Rv1 cells = assay: CellTiter-Glo cell viability, 22Rv1; conditions: Homo sapiens, 72 h
Experimental: as §1, §2, §3, §4, §5, §6, §7, §8

A2058 cells = assay: CellTiter-Glo cell viability, A2058; conditions: Homo sapiens, 72 h
Experimental: as §1, §2, §3, §4, §5, §6, §7, §8

SNU-5 cells = assay: CellTiter-Glo cell viability, SNU-5; conditions: Homo sapiens, SNU-5, SN1J-5 cells, 72 h
Experimental: as §1, §2, §3, §4, §5, §6, §7, §8

[1] = top conc. 10 μM Compound 121, 100 μM cisplatin

## Cc1cc(N2CCOC[C@@H]2C)ccc1-c1ccc(CC(=O)NCc2ccc(F)cc2)nc1 [Compound 121]
TJ905 cells; read-out: Absolute GI50
  GI50: 4 nM
TJ905 cells; read-out: Absolute IC50
  pIC50: 8.40
TJ905 cells; [1]
  inhibition at 10 µM: 70%
HT-1080 cells; read-out: Absolute GI50
  GI50: 5 nM
HT-1080 cells; read-out: Absolute IC50
  pIC50: 8.30
HT-1080 cells; [1]
  inhibition at 10 µM: 97.2%
SK-N-FI cells; read-out: Absolute GI50
  GI50: 3 nM
SK-N-FI cells; read-out: Absolute IC50
  pIC50: 8.40
SK-N-FI cells; [1]
  inhibition at 10 µM: 91.4%
HuCCT1 cells; read-out: Absolute GI50
  GI50: 4 nM
HuCCT1 cells; read-out: Absolute IC50
  pIC50: 8.40
HuCCT1 cells; [1]
  inhibition at 10 µM: 54%
OVCAR-3 cells; read-out: Absolute GI50
  GI50: 5 nM
OVCAR-3 cells; read-out: Absolute IC50
  pIC50: 8.22
OVCAR-3 cells; [1]
  inhibition at 10 µM: 64.8%
NCI-H226 cells; read-out: Absolute GI50
  GI50: 10 nM
NCI-H226 cells; read-out: Absolute IC50
  pIC50: 7.89
NCI-H226 cells; [1]
  inhibition at 10 µM: 61.7%
HCT-116 cells; read-out: Absolute GI50
  GI50: 9 nM
HCT-116 cells; read-out: Absolute IC50
  pIC50: 8.05
HCT-116 cells; [1]
  inhibition at 10 µM: 94.4%
JHH-5 cells; read-out: Absolute GI50
  GI50: 7 nM
JHH-5 cells; read-out: Absolute IC50
  pIC50: 8.15
JHH-5 cells; [1]
  inhibition at 10 µM: 80.5%
A-172 cells; read-out: Absolute GI50
  GI50: 6 nM
A-172 cells; read-out: Absolute IC50
  pIC50: 8.15
A-172 cells; [1]
  inhibition at 10 µM: 92.8%
SK-OV-3 cells; read-out: Absolute GI50
  GI50: 4 nM
SK-OV-3 cells; read-out: Absolute IC50
  pIC50: 8.40
SK-OV-3 cells; [1]
  inhibition at 10 µM: 66.2%
HUH-7 cells; read-out: Absolute GI50
  GI50: 7 nM
HUH-7 cells; read-out: Absolute IC50
  pIC50: 8.05
HUH-7 cells; [1]
  inhibition at 10 µM: 60.8%
HT-29 cells; read-out: Absolute GI50
  GI50: 4 nM
HT-29 cells; read-out: Absolute IC50
  pIC50: 8.40
HT-29 cells; [1]
  inhibition at 10 µM: 78.5%
NCI-H1975 cells; read-out: Absolute GI50
  GI50: 6 nM
NCI-H1975 cells; read-out: Absolute IC50
  pIC50: 8.22
NCI-H1975 cells; [1]
  inhibition at 10 µM: 83.7%
FaDu cells; read-out: Absolute GI50
  GI50: 7 nM
FaDu cells; read-out: Absolute IC50
  pIC50: 8.10
FaDu cells; [1]
  inhibition at 10 µM: 85.9%
786-O cells; read-out: Absolute GI50
  GI50: 5 nM
786-O cells; read-out: Absolute IC50
  pIC50: 8.30
786-O cells; [1]
  inhibition at 10 µM: 85.3%
BT474 cells; read-out: Absolute GI50
  GI50: 12 nM
BT474 cells; read-out: Absolute IC50
  pIC50: < 5.00
BT474 cells; [1]
  inhibition at 10 µM: 37.9%
NCI-H209 cells; read-out: Absolute GI50
  GI50: 17 nM
NCI-H209 cells; read-out: Absolute IC50
  pIC50: 7.70
NCI-H209 cells; [1]
  inhibition at 10 µM: 73.7%
AN3 CA cells; read-out: Absolute GI50
  GI50: 5 nM
AN3 CA cells; read-out: Absolute IC50
  pIC50: 8.30
AN3 CA cells; [1]
  inhibition at 10 µM: 98.6%
22Rv1 cells; read-out: Absolute GI50
  GI50: 5 nM
22Rv1 cells; read-out: Absolute IC50
  pIC50: 8.22
22Rv1 cells; [1]
  inhibition at 10 µM: 89%
A2058 cells; read-out: Absolute GI50
  GI50: 8 nM
A2058 cells; read-out: Absolute IC50
  pIC50: 8.10
A2058 cells; [1]
  inhibition at 10 µM: 98.1%
SNU-5 cells; read-out: Absolute GI50
  GI50: 11 nM
SNU-5 cells; read-out: Absolute IC50
  pIC50: 7.92
SNU-5 cells; [1]
  inhibition at 10 µM: 96.2%
